Test results reported in paper PMC12037410, “Pharmacological targeting of BMAL1 modulates circadian and immune pathways” (Nature Chemical Biology, 2025).

These molecules were tested against BMAL1 (Homo sapiens, UniProt O00327). Settings: dTmB; binder.
Sequence of BMAL1 (O00327 338-449): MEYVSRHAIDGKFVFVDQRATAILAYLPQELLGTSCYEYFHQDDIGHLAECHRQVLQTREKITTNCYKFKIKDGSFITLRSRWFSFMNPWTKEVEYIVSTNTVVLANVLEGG
Design: PASB domain (residues 338–449); Protein thermal shift (PTS) fragment screen on recombinant human BMAL1(PASB), shift of melting temperature
For `CNC(=O)c1cnc(C)cn1` [Prestw-Frag-1350, Compound 286], the “Bmal1(PASB) dTmB” value was 0.06 °C. For `CNCCc1c[nH]c2ccccc12` [Prestw-Frag-1356, Compound 318], the “Bmal1(PASB) dTmB” value was -0.40 °C. `O=C1COc2ccccc21` [Prestw-Frag-1361, Compound 165] was tested, and the “Bmal1(PASB) dTmB” value was -0.13 °C. With `COc1ccc2c(c1)OCC2=O` [Prestw-Frag-1362, Compound 212] the “Bmal1(PASB) dTmB” value was -0.12 °C. `OC1(c2ccc(Cl)cc2)CCNCC1` [Prestw-Frag-1365, Compound 373] was tested, and the “Bmal1(PASB) dTmB” value was -1.00 °C. `CCCC(=O)c1ccc(F)cc1` [Prestw-Frag-1368, Compound 311] was tested, and the “Bmal1(PASB) dTmB” value was -0.19 °C. With `COc1ccc2cc[nH]c2c1` [Prestw-Frag-1372, Compound 392] the “Bmal1(PASB) dTmB” value was 0.28 °C. For `Oc1ccc2cc[nH]c2c1` [Prestw-Frag-1374, Compound 33], the “Bmal1(PASB) dTmB” value was 0.97 °C. In the case of `O=C(OC1CCCCC1)c1ccccc1O` [Prestw-Frag-1382, Compound 265], the “Bmal1(PASB) dTmB” value is reported as 0.09 °C. With `NCC(O)COc1cccc2ccccc12` (centres unmarked) [Prestw-Frag-1389, Compound 450] the “Bmal1(PASB) dTmB” value was 1.58 °C. `NS(=O)(=O)c1ccccc1C(F)(F)F` [Prestw-Frag-1394, Compound 374] was tested, and the “Bmal1(PASB) dTmB” value was -0.07 °C. With `c1cc2c(cc1CN1CCNCC1)OCO2` [Prestw-Frag-1397, Compound 232] the “Bmal1(PASB) dTmB” value was -0.60 °C. For `c1cnc(N2CCNCC2)nc1` [Prestw-Frag-1398, Compound 399], the “Bmal1(PASB) dTmB” value was -0.21 °C. `COC(=O)C(CO)c1ccccc1` (centres unmarked) [Prestw-Frag-1406, Compound 266] was tested, and the “Bmal1(PASB) dTmB” value was -0.21 °C. In the case of `Cc1cn[nH]c1C` [Prestw-Frag-1408, Compound 109], the “Bmal1(PASB) dTmB” value is reported as -1.01 °C. With `NNC(=O)c1ccncc1` [Prestw-Frag-1419, Compound 226] the “Bmal1(PASB) dTmB” value was -0.26 °C. `NNC(=O)c1ccccc1` [Prestw-Frag-1420, Compound 187] was tested, and the “Bmal1(PASB) dTmB” value was -0.31 °C. With `c1cnc2[nH]ncc2c1` [Prestw-Frag-1428, Compound 174] the “Bmal1(PASB) dTmB” value was -0.31 °C. With `NC(=O)c1ccccc1O` [Prestw-Frag-1439, Compound 86] the “Bmal1(PASB) dTmB” value was 0.06 °C. In the case of `c1ccc(-c2ccccc2-c2nn[nH]n2)cc1` [Prestw-Frag-1441, Compound 357], the “Bmal1(PASB) dTmB” value is reported as -0.44 °C. For `c1ccc(CC2NCCc3ccccc32)cc1` (centres unmarked) [Prestw-Frag-1444, Compound 267], the “Bmal1(PASB) dTmB” value was -1.30 °C. With `COc1ccc(CCN(C)C)cc1OC` [Prestw-Frag-1445, Compound 247] the “Bmal1(PASB) dTmB” value was -0.12 °C. `CNCCc1ccc(OC)c(OC)c1` [Prestw-Frag-1446, Compound 257] was tested, and the “Bmal1(PASB) dTmB” value was -0.19 °C. `CN(C)C(=O)C(c1ccccc1)c1ccccc1` [Prestw-Frag-1453, Compound 166] was tested, and the “Bmal1(PASB) dTmB” value was -0.94 °C. For `CCN(CC)Cc1cc(N)ccc1O` [Prestw-Frag-1462, Compound 5], the “Bmal1(PASB) dTmB” value was -4.46 °C. With `Nc1nc2ccc(C(=O)c3ccccc3)cc2[nH]1` [Prestw-Frag-1471, Compound 466] the “Bmal1(PASB) dTmB” value was -1.29 °C. `c1ccc(CNc2ccccn2)cc1` [Prestw-Frag-1475, Compound 204] was tested, and the “Bmal1(PASB) dTmB” value was -1.06 °C. In the case of `CN(C)CCNCc1ccccc1` [Prestw-Frag-1476, Compound 397], the “Bmal1(PASB) dTmB” value is reported as -0.27 °C. `CC(=O)NCCc1c[nH]c2ccccc12` [Prestw-Frag-1478, Compound 417] was tested, and the “Bmal1(PASB) dTmB” value was -0.27 °C. For `COc1ccc2[nH]cc(CCN)c2c1` [Prestw-Frag-1480, Compound 3], the “Bmal1(PASB) dTmB” value was 3.24 °C. In the case of `Nc1c(Cl)ccc2nsnc12` [Prestw-Frag-1492, Compound 2], the “Bmal1(PASB) dTmB” value is reported as -1.34 °C. In the case of `Cc1cnc(C(=O)O)cn1` [Prestw-Frag-1494, Compound 98], the “Bmal1(PASB) dTmB” value is reported as 0.14 °C. `O=C(O)c1cnccn1` [Prestw-Frag-1495, Compound 269] was tested, and the “Bmal1(PASB) dTmB” value was 0.04 °C. For `O=C(O)CC[C@H](NC(=O)c1ccccc1)C(=O)O` [Prestw-Frag-1499, Compound 195], the “Bmal1(PASB) dTmB” value was 0.09 °C. For `COc1cc(C)cc(C)c1C` [Prestw-Frag-1506, Compound 359], the “Bmal1(PASB) dTmB” value was -0.12 °C.
